Earlier results, collected in patent US9867849B2, “Methods of treating or ameliorating skin conditions with a magnetic dipole stabilized solution” (REVEN PHARMACEUTICALS, INC., priority 2010, dated 2018).

Assays:
[1] = rats; 100 mg/kg body weight daily
[2] = 121 patients with hepatocellular carcinoma undergoing conventional therapy; 45 mg/day oral
[3] = 241 osteoporotic women, 45 mg/day vitamin K2 and 150 mg elemental calcium, after two years
[4] = tested on: blast cell numbers in bone marrow and/or peripheral blood; details: of those receiving other medication concomitantly; 20-135 mg/day orally or 10-50 mg/day intravenously
[5] = higher intake of vitamin K2
[6] = more than 500 postmenopausal women; dietary intake
[7] = rabbits

CC(C)=CCC/C(C)=C/CC/C(C)=C/CC/C(C)=C/CC1=C(C)C(=O)c2ccccc2C1=O [Vitamin K2]
increase in calcium in both kidneys and aorta induced by megadose of synthetic vitamin D [1]: inhibited | survival [2]: significant increase in survival | lumbar bone mineral density [3]: maintain lumbar bone mineral density | fracture incidence ([3]; 30% in the control group): 10% | patients in whom blast cell numbers in bone marrow and/or peripheral blood were reduced [4]: ~71% | reduction of prostate cancer risk [5]: 35% | coronary calcification (association with intake) [6]: associated with the trend toward decreasing coronary calcification | atherosclerotic plaque progression in the aorta and pulmonary arteries ([7]; 1-10 mg/kg daily for 10 weeks): inhibited | ester cholesterol deposition in the aorta ([7]; compared to the control group): reduce | factor X activity in plasma ([7]; compared to the control group): reduce | lipid peroxidation ([7]; compared to the control group): reduce | total cholesterol levels ([7]; compared to the control group): reduce
